ChEMBL document CHEMBL5291721, “A preclinical secondary pharmacology resource illuminates target-adverse drug reaction associations of marketed drugs” (Nat Commun, 2023)

Key:
[1] = target: Mu-type opioid receptor (Homo sapiens, UniProt P35372)
[2] = target: T1, 5-hydroxytryptamine receptor 1A (Homo sapiens, UniProt P08908)
T1 sequence (P08908 whole entry): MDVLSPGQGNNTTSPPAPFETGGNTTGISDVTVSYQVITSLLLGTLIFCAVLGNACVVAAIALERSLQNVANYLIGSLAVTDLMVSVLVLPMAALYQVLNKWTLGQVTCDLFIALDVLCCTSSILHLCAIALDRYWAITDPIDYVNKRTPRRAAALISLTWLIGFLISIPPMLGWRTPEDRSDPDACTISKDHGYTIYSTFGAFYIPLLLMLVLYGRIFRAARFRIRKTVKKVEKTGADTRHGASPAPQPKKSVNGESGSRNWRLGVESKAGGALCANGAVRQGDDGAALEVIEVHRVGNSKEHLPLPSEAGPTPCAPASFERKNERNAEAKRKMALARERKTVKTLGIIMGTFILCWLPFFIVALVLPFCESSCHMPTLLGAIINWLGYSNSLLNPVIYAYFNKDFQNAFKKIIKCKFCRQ

[3] = target: 3',5'-cyclic-AMP phosphodiesterase 4A (Homo sapiens, UniProt P27815); type: functional
3',5'-cyclic-AMP phosphodiesterase 4A, sequence (P27815 whole entry): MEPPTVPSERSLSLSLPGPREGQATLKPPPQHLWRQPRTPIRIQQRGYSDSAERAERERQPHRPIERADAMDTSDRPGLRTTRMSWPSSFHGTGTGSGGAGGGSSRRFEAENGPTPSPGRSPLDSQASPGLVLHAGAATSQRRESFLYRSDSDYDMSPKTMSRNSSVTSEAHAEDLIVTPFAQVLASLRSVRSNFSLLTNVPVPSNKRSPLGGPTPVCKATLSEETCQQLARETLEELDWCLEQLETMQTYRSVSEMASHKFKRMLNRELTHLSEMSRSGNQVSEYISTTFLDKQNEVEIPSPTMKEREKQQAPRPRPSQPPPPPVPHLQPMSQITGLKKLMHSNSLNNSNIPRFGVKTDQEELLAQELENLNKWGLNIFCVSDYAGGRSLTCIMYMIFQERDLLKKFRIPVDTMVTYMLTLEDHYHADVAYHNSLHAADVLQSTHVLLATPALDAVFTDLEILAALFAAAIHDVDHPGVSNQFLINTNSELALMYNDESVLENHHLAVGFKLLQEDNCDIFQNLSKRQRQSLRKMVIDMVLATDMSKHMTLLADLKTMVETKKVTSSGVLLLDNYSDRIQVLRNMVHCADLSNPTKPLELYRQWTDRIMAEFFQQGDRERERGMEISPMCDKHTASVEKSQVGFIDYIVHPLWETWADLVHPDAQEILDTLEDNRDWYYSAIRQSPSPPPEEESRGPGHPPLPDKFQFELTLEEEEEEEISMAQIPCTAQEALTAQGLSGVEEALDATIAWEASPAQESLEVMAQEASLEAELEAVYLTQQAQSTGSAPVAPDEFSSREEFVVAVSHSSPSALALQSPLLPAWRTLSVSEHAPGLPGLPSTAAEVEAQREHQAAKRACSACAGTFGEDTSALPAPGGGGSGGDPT

[4] = target: 5-hydroxytryptamine receptor 2B (Homo sapiens, UniProt P41595); type: functional, cell-based
5-hydroxytryptamine receptor 2B, sequence (P41595 whole entry): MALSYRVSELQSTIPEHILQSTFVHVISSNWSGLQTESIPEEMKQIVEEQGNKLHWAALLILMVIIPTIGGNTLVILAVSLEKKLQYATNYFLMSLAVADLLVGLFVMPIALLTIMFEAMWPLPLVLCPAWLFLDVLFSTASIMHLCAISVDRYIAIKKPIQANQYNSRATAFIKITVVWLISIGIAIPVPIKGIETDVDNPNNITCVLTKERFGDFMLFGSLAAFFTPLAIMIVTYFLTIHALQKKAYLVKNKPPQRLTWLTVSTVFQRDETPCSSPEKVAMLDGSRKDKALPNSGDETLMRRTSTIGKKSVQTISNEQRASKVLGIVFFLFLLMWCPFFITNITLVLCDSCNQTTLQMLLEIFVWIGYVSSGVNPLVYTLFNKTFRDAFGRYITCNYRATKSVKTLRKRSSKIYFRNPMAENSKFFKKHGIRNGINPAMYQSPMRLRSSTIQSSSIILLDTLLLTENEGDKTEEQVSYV

[5] = target: Sodium-dependent serotonin transporter (Homo sapiens, UniProt P31645)
Sodium-dependent serotonin transporter, sequence (P31645 whole entry): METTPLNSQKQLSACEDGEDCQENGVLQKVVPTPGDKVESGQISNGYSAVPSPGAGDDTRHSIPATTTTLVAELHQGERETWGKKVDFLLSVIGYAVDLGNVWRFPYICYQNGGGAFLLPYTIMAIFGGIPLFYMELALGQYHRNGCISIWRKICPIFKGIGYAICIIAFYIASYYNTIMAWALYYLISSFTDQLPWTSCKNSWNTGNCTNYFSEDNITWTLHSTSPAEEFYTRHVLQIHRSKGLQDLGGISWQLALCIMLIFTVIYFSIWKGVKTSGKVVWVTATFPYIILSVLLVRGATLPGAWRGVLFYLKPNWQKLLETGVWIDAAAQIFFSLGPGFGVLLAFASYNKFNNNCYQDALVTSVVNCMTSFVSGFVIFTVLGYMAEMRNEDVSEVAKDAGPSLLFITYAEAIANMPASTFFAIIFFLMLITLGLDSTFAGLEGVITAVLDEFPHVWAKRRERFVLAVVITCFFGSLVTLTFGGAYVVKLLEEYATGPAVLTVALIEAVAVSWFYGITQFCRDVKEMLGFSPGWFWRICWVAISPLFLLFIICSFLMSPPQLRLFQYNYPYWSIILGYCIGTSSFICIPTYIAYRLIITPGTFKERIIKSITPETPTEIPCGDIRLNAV

[6] = target: T2, Alpha-1A adrenergic receptor (Homo sapiens, UniProt P35348); type: functional, cell-based
T2 sequence (P35348 whole entry): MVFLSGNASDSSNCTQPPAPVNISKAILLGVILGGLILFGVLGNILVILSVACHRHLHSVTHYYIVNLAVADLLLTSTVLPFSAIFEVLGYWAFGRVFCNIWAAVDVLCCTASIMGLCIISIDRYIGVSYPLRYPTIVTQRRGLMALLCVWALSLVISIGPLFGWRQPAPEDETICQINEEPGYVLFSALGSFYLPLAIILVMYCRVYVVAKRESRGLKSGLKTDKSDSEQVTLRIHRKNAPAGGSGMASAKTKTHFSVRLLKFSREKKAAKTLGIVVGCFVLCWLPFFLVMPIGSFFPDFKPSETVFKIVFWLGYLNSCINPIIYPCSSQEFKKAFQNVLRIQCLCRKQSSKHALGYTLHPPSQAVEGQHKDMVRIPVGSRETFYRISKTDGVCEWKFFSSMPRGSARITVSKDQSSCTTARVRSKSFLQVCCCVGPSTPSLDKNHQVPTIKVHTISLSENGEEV

[7] = target: Sodium-dependent noradrenaline transporter (Homo sapiens, UniProt P23975)
Sodium-dependent noradrenaline transporter, sequence (P23975 whole entry): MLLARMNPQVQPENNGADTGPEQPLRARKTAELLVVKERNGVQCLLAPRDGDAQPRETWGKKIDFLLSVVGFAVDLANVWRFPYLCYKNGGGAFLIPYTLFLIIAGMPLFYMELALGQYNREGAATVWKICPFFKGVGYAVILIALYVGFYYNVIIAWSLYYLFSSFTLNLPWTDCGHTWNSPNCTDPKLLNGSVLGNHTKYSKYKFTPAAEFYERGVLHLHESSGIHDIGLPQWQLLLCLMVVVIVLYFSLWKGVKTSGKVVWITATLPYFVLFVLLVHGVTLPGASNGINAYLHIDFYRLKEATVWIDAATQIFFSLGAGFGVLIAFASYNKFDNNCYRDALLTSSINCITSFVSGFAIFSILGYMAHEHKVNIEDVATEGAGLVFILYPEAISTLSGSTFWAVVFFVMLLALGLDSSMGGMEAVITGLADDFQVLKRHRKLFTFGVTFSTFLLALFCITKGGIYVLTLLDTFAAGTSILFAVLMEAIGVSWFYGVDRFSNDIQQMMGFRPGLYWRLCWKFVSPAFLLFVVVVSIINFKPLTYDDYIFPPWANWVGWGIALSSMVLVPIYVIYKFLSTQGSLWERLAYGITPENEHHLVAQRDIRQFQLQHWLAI

[8] = target: T3, Prostaglandin G/H synthase 1 (Homo sapiens, UniProt P23219); type: functional
T3 sequence (P23219 whole entry): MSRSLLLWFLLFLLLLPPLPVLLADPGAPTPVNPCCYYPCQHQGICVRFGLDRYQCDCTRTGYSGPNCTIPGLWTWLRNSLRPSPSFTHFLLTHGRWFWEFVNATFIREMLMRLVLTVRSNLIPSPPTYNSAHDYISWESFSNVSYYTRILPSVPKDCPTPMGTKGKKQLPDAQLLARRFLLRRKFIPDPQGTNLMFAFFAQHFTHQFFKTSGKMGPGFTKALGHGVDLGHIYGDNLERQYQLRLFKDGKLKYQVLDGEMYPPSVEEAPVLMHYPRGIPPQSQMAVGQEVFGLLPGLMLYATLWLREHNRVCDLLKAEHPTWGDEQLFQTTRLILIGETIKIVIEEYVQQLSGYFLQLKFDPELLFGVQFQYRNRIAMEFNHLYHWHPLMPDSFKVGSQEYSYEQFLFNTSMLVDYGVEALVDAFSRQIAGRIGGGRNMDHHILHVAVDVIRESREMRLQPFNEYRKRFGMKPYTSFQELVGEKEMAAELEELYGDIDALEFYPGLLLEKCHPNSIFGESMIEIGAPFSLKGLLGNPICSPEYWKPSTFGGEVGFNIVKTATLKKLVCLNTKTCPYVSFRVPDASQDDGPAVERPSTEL

[9] = target: T4, Amine oxidase [flavin-containing] A (Homo sapiens, UniProt P21397); type: functional
T4 sequence (P21397 whole entry): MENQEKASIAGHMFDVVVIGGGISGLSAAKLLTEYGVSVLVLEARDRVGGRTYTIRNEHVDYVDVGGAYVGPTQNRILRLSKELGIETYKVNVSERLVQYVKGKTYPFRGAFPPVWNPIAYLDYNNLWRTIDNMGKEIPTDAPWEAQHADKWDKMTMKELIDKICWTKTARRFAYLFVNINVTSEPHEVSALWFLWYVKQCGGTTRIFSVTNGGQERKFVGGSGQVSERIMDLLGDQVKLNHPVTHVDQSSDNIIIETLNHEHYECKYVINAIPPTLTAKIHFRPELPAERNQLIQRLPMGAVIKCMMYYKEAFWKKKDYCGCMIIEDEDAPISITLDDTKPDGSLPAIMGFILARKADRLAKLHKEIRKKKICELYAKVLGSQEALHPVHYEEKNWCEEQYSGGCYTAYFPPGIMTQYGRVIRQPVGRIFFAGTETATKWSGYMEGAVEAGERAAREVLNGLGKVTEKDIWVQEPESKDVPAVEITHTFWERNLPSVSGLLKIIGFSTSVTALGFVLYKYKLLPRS

[10] = target: T3, Prostaglandin G/H synthase 1; type: functional; remark: listed apart in the source
[11] = target: T5, Muscarinic acetylcholine receptor M2 (Homo sapiens, UniProt P08172)
T5 sequence (P08172 whole entry): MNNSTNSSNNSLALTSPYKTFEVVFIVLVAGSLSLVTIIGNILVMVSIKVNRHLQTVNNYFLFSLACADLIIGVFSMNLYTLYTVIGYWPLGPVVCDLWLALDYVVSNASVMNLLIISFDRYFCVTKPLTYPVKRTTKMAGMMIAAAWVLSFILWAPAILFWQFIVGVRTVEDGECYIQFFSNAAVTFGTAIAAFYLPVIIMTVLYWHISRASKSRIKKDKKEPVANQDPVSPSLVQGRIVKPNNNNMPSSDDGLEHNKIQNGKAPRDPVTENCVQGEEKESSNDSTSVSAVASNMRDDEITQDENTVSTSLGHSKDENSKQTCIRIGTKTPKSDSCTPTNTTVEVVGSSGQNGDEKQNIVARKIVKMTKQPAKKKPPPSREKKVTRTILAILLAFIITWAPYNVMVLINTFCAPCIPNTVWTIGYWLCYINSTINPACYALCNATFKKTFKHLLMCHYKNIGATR

[12] = target: T6, Estrogen receptor (Homo sapiens, UniProt P03372)
T6 sequence (P03372 whole entry): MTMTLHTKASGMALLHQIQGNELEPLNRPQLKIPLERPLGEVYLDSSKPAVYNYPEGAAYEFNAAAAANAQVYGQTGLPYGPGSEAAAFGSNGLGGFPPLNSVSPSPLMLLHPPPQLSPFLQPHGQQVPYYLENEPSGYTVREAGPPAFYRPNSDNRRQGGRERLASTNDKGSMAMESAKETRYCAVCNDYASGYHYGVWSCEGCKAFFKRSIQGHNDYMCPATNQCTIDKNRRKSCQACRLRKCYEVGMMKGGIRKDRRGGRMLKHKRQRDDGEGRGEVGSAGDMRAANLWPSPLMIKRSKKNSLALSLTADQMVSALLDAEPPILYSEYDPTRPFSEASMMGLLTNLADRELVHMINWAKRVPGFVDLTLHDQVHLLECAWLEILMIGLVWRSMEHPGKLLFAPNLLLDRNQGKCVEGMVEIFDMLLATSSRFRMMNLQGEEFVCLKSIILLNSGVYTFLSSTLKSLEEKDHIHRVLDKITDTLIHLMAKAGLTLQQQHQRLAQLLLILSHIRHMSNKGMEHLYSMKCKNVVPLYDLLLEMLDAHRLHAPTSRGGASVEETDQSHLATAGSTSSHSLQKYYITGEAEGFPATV

[13] = target: Histamine H3 receptor (Homo sapiens, UniProt Q9Y5N1)
Histamine H3 receptor, sequence (Q9Y5N1 whole entry): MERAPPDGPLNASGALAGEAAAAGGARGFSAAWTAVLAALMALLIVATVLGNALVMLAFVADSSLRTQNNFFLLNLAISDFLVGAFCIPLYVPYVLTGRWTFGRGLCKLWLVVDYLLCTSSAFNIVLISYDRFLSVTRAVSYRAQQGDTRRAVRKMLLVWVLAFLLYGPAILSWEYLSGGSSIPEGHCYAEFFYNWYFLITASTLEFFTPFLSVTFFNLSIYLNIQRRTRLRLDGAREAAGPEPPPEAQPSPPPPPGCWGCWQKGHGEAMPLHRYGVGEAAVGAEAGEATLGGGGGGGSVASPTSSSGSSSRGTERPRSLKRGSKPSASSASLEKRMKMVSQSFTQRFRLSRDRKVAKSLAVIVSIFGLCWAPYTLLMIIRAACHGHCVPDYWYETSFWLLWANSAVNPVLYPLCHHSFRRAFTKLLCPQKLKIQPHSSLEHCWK
Note: assay procedure not described here.

Mu-type opioid receptor, sequence (P35372 whole entry): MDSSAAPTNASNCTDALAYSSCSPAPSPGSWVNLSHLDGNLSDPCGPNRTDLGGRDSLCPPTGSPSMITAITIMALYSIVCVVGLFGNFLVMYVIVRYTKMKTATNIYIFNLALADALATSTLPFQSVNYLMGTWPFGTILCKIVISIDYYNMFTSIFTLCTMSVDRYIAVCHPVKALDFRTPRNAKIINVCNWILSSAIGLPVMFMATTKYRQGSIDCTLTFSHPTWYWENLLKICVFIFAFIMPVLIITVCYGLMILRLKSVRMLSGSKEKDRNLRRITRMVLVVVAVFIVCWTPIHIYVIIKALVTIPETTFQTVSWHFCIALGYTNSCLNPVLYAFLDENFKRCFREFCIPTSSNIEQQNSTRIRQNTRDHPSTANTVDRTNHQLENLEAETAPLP

| Compound | AC50 [1] [µM] | AC50 [2] [µM] | AC50 [3] [µM] | AC50 [4] [µM] | AC50 [5] [µM] | AC50 [6] [µM] | AC50 [7] [µM] | AC50 [8] [µM] | AC50 [9] [µM] | AC50 [10] [µM] | AC50 [11] [µM] | AC50 [12] [µM] | AC50 [13] [µM] |
| --- | --- | --- | --- | --- | --- | --- | --- | --- | --- | --- | --- | --- | --- |
| CCC[C@@H]1C[C@@H](C(=O)N[C@@H]([C@H]2O[C@H](SC)[C@H](OP(=O)(O)O)[C@@H](O)[C@H]2O)[C@H](C)Cl)N(C)C1 [CLINDAMYCIN PHOSPHATE] | > 30 | > 30 | > 30 | > 30 | > 30 | > 30 | > 30 | > 30 | > 30 | > 30 | > 30 | > 30 | > 30 |
| C[C@@H]1C[C@H]2[C@@H]3C[C@H](F)C4=CC(=O)C=C[C@]4(C)[C@@]3(Cl)[C@@H](O)C[C@]2(C)[C@H]1C(=O)COC(=O)C(C)(C)C [CLOCORTOLONE PIVALATE] | > 10 | > 30 | > 30 | > 30 | > 30 | > 30 | > 30 | > 30 | > 30 | > 30 | > 10 | > 30 | > 30 |
| O=P(O)(O)C(Cl)(Cl)P(=O)(O)O [CLODRONIC ACID] | > 30 | > 30 | > 30 | > 30 | > 30 | > 30 | > 30 | > 30 | > 30 | > 30 | > 30 | > 30 | > 30 |
| Nc1ccncc1 [DALFAMPRIDINE] | > 30 | > 30 | > 30 | > 30 | > 30 | > 30 | > 30 | > 30 | > 30 | > 30 | > 30 | > 30 | > 30 |
| C[C@@H](O)[C@H]1C(=O)N2C(C(=O)O)=C([C@H]3CCCO3)S[C@H]12 [FAROPENEM] | > 30 | > 30 | > 30 | > 30 | > 30 | > 30 | > 30 | 14.7 | > 30 | 11.4 | > 30 | > 30 | > 30 |
| CCOC(=O)c1ccc(OC(=O)CCCCCNC(=N)N)cc1 [GABEXATE] | > 30 | > 30 | > 30 | > 30 | > 30 | > 30 | 9.03 | > 30 | > 30 | > 30 | 1.49 | > 30 | > 30 |
| COCCOc1cnc(NS(=O)(=O)c2ccccc2)nc1 [GLYMIDINE] | > 30 | > 30 | > 30 | > 30 | > 30 | > 30 | > 30 | > 30 | > 30 | > 30 | > 30 | > 30 | > 30 |
| CCC(=O)O[C@]1(C(=O)COC(C)=O)CC[C@H]2[C@@H]3CCC4=CC(=O)CC[C@]4(C)[C@H]3[C@@H](O)C[C@@]21C [HYDROCORTISONE ACEPONATE] | > 30 | > 30 | > 30 | > 30 | > 30 | > 30 | > 30 | > 30 | > 30 | > 30 | > 30 | > 30 | > 30 |
| O=[N+]([O-])O[C@H]1CO[C@H]2[C@@H]1OC[C@H]2O[N+](=O)[O-] [ISOSORBIDE DINITRATE] | > 30 | > 30 | > 30 | > 30 | > 30 | > 30 | > 30 | > 30 | > 30 | > 30 | > 30 | > 30 | > 30 |
| NC(=O)NCCC[C@H](N)C(=O)O [L-CITRULLINE] | > 30 | > 30 | > 30 | > 30 | > 30 | > 30 | > 30 | > 30 | > 30 | > 30 | > 30 | > 30 | > 30 |
| CC(=O)O[C@H]1C[C@H](O[C@H]2[C@@H](O)C[C@H](O[C@H]3[C@@H](O)C[C@H](O[C@H]4CC[C@@]5(C)[C@H](CC[C@@H]6[C@@H]5C[C@@H](O)[C@]5(C)[C@@H](C7=CC(=O)OC7)CC[C@]65O)C4)O[C@@H]3C)O[C@@H]2C)O[C@H](C)[C@H]1O[C@@H]1O[C@H](CO)[C@@H](O)[C@H](O)[C@H]1O [LANATOSIDE C] | > 30 | > 30 | > 30 | > 30 | > 30 | > 30 | > 30 | > 30 | > 30 | > 30 | > 30 | > 30 | > 30 |
| Nc1nc(N)nc(Nc2ccc([As]3SCC(CO)S3)cc2)n1 (stereo unspecified) [MELARSOPROL] | > 30 | > 30 | 14.5 | > 30 | > 30 | > 30 | > 30 | 23.5 | > 30 | > 30 | > 30 | > 30 | > 30 |
